Where two headings read alike, the source gives them in different places.
Experiments:
[1] = tested on: HepG2-A16-CD81EGFP cells; settings: for IC50: read-out: Tox_IC50, HepG2 cytotoxicity
[2] = tested on: Plasmodium berghei (Pb-Luc) exoerythrocytic-stage parasites; settings: for normalised signal at concentration 10 (first series): concentration 10, first series of dose columns; for normalised signal at concentration 10 (second series): concentration 10, second series of dose columns; for IC50: read-out: PbLuc_IC50
[3] = sheet "2nd round", Broad compounds, dose response top concentration 10
[4] = 2nd round, maximal inhibition in dose series

SMILES: CC(C)[C@@H]1COCc2cnnn2CCC[C@H](C)C(=O)N1 [BRD-K01882341-001-02-9]
- IC50 ([1]; sheet "2nd round"): > 10 µM
- Tox_max_inhibition (%) ([1]; sheet "2nd round"): 4.53%
- normalised signal at concentration 0.000508053 (first series) [2]: 0.8014
- normalised signal at concentration 0.000508053 (second series) [2]: 0.9562
- normalised signal at concentration 0.00152416 (first series) [2]: 0.9047
- normalised signal at concentration 0.00152416 (second series) [2]: 0.8755
- normalised signal at concentration 0.00457247 (first series) [2]: 0.9797
- normalised signal at concentration 0.00457247 (second series) [2]: 1.034
- normalised signal at concentration 0.0137174 (first series) [2]: 0.9629
- normalised signal at concentration 0.0137174 (second series) [2]: 0.9854
- normalised signal at concentration 0.0411523 (first series) [2]: 0.8726
- normalised signal at concentration 0.0411523 (second series) [2]: 0.8168
- normalised signal at concentration 0.123457 (first series) [2]: 0.9418
- normalised signal at concentration 0.123457 (second series) [2]: 1.121
- normalised signal at concentration 0.37037 (first series) [2]: 0.9345
- normalised signal at concentration 0.37037 (second series) [2]: 0.7926
- normalised signal at concentration 1.11111 (first series) [2]: 0.8828
- normalised signal at concentration 1.11111 (second series) [2]: 0.9806
- normalised signal at concentration 3.33333 (first series) [2]: 0.9641
- normalised signal at concentration 3.33333 (second series) [2]: 0.9379
- normalised signal at concentration 10 (first series) [2]: 1.091
- normalised signal at concentration 10 (second series) [2]: 0.8693
- IC50 [2, 3]: > 10 µM
- PbLuc_max_inhibition (%) ([2]; sheet "2nd round"): 21%

SMILES: COc1ccc(NC(=O)N(C)C[C@H]2Oc3c(NC(=O)CCCCCC(=O)Nc4ccccc4N)cccc3C(=O)N([C@@H](C)CO)C[C@H]2C)cc1 [BRD-K03339938-001-01-9]
- IC50 ([1]; sheet "2nd round"): > 10 µM
- Tox_max_inhibition (%) ([1]; sheet "2nd round"): 4.46%
- normalised signal at concentration 0.000508053 (first series) [2]: 1.103
- normalised signal at concentration 0.000508053 (second series) [2]: 1.02
- normalised signal at concentration 0.00152416 (first series) [2]: 0.9211
- normalised signal at concentration 0.00152416 (second series) [2]: 0.7891
- normalised signal at concentration 0.00457247 (first series) [2]: 0.9975
- normalised signal at concentration 0.00457247 (second series) [2]: 0.8582
- normalised signal at concentration 0.0137174 (first series) [2]: 0.9216
- normalised signal at concentration 0.0137174 (second series) [2]: 0.8637
- normalised signal at concentration 0.0411523 (first series) [2]: 0.9804
- normalised signal at concentration 0.0411523 (second series) [2]: 0.9024
- normalised signal at concentration 0.123457 (first series) [2]: 0.8136
- normalised signal at concentration 0.123457 (second series) [2]: 0.9499
- normalised signal at concentration 0.37037 (first series) [2]: 0.9387
- normalised signal at concentration 0.37037 (second series) [2]: 1.008
- normalised signal at concentration 1.11111 (first series) [2]: 0.9514
- normalised signal at concentration 1.11111 (second series) [2]: 0.9972
- normalised signal at concentration 3.33333 (first series) [2]: 1.011
- normalised signal at concentration 3.33333 (second series) [2]: 1.0698
- normalised signal at concentration 10 (first series) [2]: 1.4773
- normalised signal at concentration 10 (second series) [2]: 1.187
- IC50 [2, 3]: > 10 µM
- PbLuc_max_inhibition (%) ([2]; sheet "2nd round"): 21%

SMILES: C[C@H]1CN([C@@H](C)CO)C(=O)c2cccc(NC(=O)c3ccc(-c4nccs4)cc3)c2O[C@@H]1CN(C)C(=O)Nc1ccc(C(F)(F)F)cc1 [BRD-K03390828-001-01-5]
- Tox_max_inhibition (%) [1, 4]: 6.57%
- IC50 ([1]; 2nd round, unit inferred): > 10 µM
- PbLuc_max_inhibition (%) [2, 4]: 34%
- normalized signal at 0.000508053 (first series) ([2]; concentration 0.000508053, first replicate series, fraction of control): 0.9377
- normalized signal at 0.000508053 (second series) ([2]; concentration 0.000508053, second replicate series, fraction of control): 0.6684
- normalized signal at 0.00152416 (first series) ([2]; concentration 0.00152416, first replicate series, fraction of control): 0.8855
- normalized signal at 0.00152416 (second series) ([2]; concentration 0.00152416, second replicate series, fraction of control): 0.8915
- normalized signal at 0.00457247 (first series) ([2]; concentration 0.00457247, first replicate series, fraction of control): 0.8808
- normalized signal at 0.00457247 (second series) ([2]; concentration 0.00457247, second replicate series, fraction of control): 0.7577
- normalized signal at 0.0137174 (first series) ([2]; concentration 0.0137174, first replicate series, fraction of control): 0.9989
- normalized signal at 0.0137174 (second series) ([2]; concentration 0.0137174, second replicate series, fraction of control): 0.749
- normalized signal at 0.0411523 (first series) ([2]; concentration 0.0411523, first replicate series, fraction of control): 0.8536
- normalized signal at 0.0411523 (second series) ([2]; concentration 0.0411523, second replicate series, fraction of control): 0.9352
- normalized signal at 0.123457 (first series) ([2]; concentration 0.123457, first replicate series, fraction of control): 0.9414
- normalized signal at 0.123457 (second series) ([2]; concentration 0.123457, second replicate series, fraction of control): 0.925
- normalized signal at 0.37037 (first series) ([2]; concentration 0.37037, first replicate series, fraction of control): 0.9548
- normalized signal at 0.37037 (second series) ([2]; concentration 0.37037, second replicate series, fraction of control): 0.6557
- normalized signal at 1.11111 (first series) ([2]; concentration 1.11111, first replicate series, fraction of control): 1.032
- normalized signal at 1.11111 (second series) ([2]; concentration 1.11111, second replicate series, fraction of control): 0.7805
- normalized signal at 3.33333 (first series) ([2]; concentration 3.33333, first replicate series, fraction of control): 1.162
- normalized signal at 3.33333 (second series) ([2]; concentration 3.33333, second replicate series, fraction of control): 0.8715
- normalized signal at 10 (first series) ([2]; concentration 10, first replicate series, fraction of control): 0.7935
- normalized signal at 10 (second series) ([2]; concentration 10, second replicate series, fraction of control): 0.8747
- IC50 ([2]; 2nd round, Broad DOS compounds, unit not printed (dose series head 10 to 0.000508053)): > 10 µM

SMILES: COc1ccc(CNC(=O)C[C@H]2CC[C@@H](NC(=O)CN(C)C)[C@H](CO)O2)cc1 [BRD-K05060234-001-01-0]
- IC50 ([1]; sheet "2nd round"): > 10 µM
- Tox_max_inhibition (%) ([1]; sheet "2nd round"): 11%
- normalised signal at concentration 0.000508053 (first series) [2]: 0.9876
- normalised signal at concentration 0.000508053 (second series) [2]: 0.95
- normalised signal at concentration 0.00152416 (first series) [2]: 0.9394
- normalised signal at concentration 0.00152416 (second series) [2]: 1.006
- normalised signal at concentration 0.00457247 (first series) [2]: 1.108
- normalised signal at concentration 0.00457247 (second series) [2]: 1.09
- normalised signal at concentration 0.0137174 (first series) [2]: 1.028
- normalised signal at concentration 0.0137174 (second series) [2]: 1.083
- normalised signal at concentration 0.0411523 (first series) [2]: 1.04
- normalised signal at concentration 0.0411523 (second series) [2]: 1.112
- normalised signal at concentration 0.123457 (first series) [2]: 1.099
- normalised signal at concentration 0.123457 (second series) [2]: 1.024
- normalised signal at concentration 0.37037 (first series) [2]: 1.009
- normalised signal at concentration 0.37037 (second series) [2]: 0.9385
- normalised signal at concentration 1.11111 (first series) [2]: 1.251
- normalised signal at concentration 1.11111 (second series) [2]: 1.0925
- normalised signal at concentration 3.33333 (first series) [2]: 1.234
- normalised signal at concentration 3.33333 (second series) [2]: 0.8448
- normalised signal at concentration 10 (first series) [2]: 0.9455
- normalised signal at concentration 10 (second series) [2]: 0.8679
- IC50 [2, 3]: > 10 µM
- PbLuc_max_inhibition (%) ([2]; sheet "2nd round"): 16%

SMILES: C[C@@H]1CN([C@@H](C)CO)C(=O)Cc2cc(NC(=O)C3CCCCC3)ccc2O[C@H]1CN(C)Cc1ccc(Cl)c(Cl)c1 [BRD-K87663528-001-01-7]
- IC50 ([1]; sheet "2nd round"): > 10 µM
- Tox_max_inhibition (%) ([1]; sheet "2nd round"): 58%

SMILES: CO[C@@H]1CN(C)C(=O)c2ccc(NC(=O)Nc3ccccc3F)cc2OC[C@@H](C)N(CC2CC2)C[C@H]1C [BRD-K88085458-001-01-6]
- IC50 ([1]; sheet "2nd round"): > 10 µM
- Tox_max_inhibition (%) ([1]; sheet "2nd round"): 6%

SMILES: CCCNC(=O)N1[C@H](C#N)[C@H](c2ccc(-c3ccccc3F)cc2)[C@H]1CO [BRD-K88402291-001-01-4]
- IC50 ([1]; sheet "2nd round"): > 10 µM
- Tox_max_inhibition (%) ([1]; sheet "2nd round"): 3%

SMILES: O=C(Nc1ccccc1F)N1CCCCN2[C@H](CO)[C@H](c3ccc(/C=C/c4ccccc4)cc3)[C@H]2C1 [BRD-K88581921-001-01-3]
- IC50 ([1]; sheet 2nd round): > 10 µM
- Tox_max_inhibition (%) ([1]; sheet 2nd round, maximal inhibition in dose response): 3%

SMILES: O=C(Nc1ccc(Cl)cc1)N1C[C@@H]2[C@H](c3ccccc31)[C@@H](CO)N2CC1CCCCC1 [BRD-K89605819-001-01-4]
- IC50 ([1]; sheet "2nd round"): > 10 µM
- Tox_max_inhibition (%) ([1]; sheet "2nd round"): 4.75%

SMILES: N#C[C@@H]1[C@H](c2ccccc2C2=CCCCC2)[C@H](CO)N1S(=O)(=O)c1ccccc1 [BRD-K90570429-001-01-9]
- IC50 ([1]; sheet "2nd round"): > 10 µM
- Tox_max_inhibition (%) ([1]; sheet "2nd round"): 8%

— PMC4890880 (ACS infectious diseases, 2016)
